# From patent US4293694A, “Pyrido[3,2,1-jk]carbazols” (Otsuka Pharmaceutical Co., Ltd., priority 1979, dated 1981)
# Read-outs that look alike come from different tables or passages of the source.
# Key:
# [1] = test system: Bacillus subtilis ATCC 6633; experiment: Antimicrobial activity, serial dilution method on agar plate; format: cell-based; conditions: ATCC6633, read-out: Minimum Inhibitory Concentration (MIC)
# Bacillus anthracis = experiment: microbe, parasite or virus in culture; format: cell-based; conditions: read-out: Minimum Inhibitory Concentration (MIC)
# [2] = test system: Bacillus cereus ATCC 11778; experiment: Antimicrobial activity, serial dilution method on agar plate; format: cell-based; conditions: ATCC11778, read-out: Minimum Inhibitory Concentration (MIC)
# [3] = test system: Staphyrococcus aureus FDA 209p; experiment: as above; format: cell-based; conditions: read-out: Minimum Inhibitory Concentration (MIC)
# [4] = test system: Staphyrococcus aureus Newmann; experiment: as above; format: cell-based; conditions: read-out: Minimum Inhibitory Concentration (MIC)
# [5] = test system: Streptococcus faecalis IFO 12580; experiment: as above; format: cell-based; conditions: Enterococcus faecalis, IFO12580, read-out: Minimum Inhibitory Concentration (MIC)
# Streptomyces viridans = experiment: as above; format: cell-based; conditions: read-out: Minimum Inhibitory Concentration (MIC)
# Sarcina lutea ATCC 9341 = experiment: as above; format: cell-based; conditions: Micrococcus luteus, ATCC9341, read-out: Minimum Inhibitory Concentration (MIC)
# [6] = test system: Micrococcus flavus ATCC 10240a; experiment: as above; format: cell-based; conditions: ATCC10240A, read-out: Minimum Inhibitory Concentration (MIC)
# [7] = test system: Serratia marcescens ATCC 14756; experiment: as above; format: cell-based; conditions: ATCC14756, read-out: Minimum Inhibitory Concentration (MIC)
# [8] = test system: Salmonella typhimurium kh; experiment: as above; format: cell-based; conditions: Salmonella enterica, read-out: Minimum Inhibitory Concentration (MIC)
# Enterbactor cloacae 2 = experiment: as above; format: cell-based; conditions: read-out: Minimum Inhibitory Concentration (MIC)
# [9] = test system: Enterbactor aerogenes IFO 12979; experiment: as above; format: cell-based; conditions: read-out: Minimum Inhibitory Concentration (MIC)
# [10] = test system: Klebsiella pneumoniae ST-101; experiment: as above; format: cell-based; conditions: ST101, read-out: Minimum Inhibitory Concentration (MIC)
# Esherichia coli NIHJ = experiment: as above; format: cell-based; conditions: read-out: Minimum Inhibitory Concentration (MIC)
# [11] = test system: Esherichia coli NIHJ JC-2; experiment: as above; format: cell-based; conditions: read-out: Minimum Inhibitory Concentration (MIC)
# Proteus mirabilis 1287 = experiment: as above; format: cell-based; conditions: read-out: Minimum Inhibitory Concentration (MIC)
# [12] = test system: Pseudomonas aeruginosa ATCC 10145; experiment: as above; format: cell-based; conditions: ATCC10145, read-out: Minimum Inhibitory Concentration (MIC)
# Candida albicans KYU = experiment: as above; format: cell-based; conditions: read-out: Minimum Inhibitory Concentration (MIC)
# Acute toxicity = conditions: rat, in vivo, rats, dd strain, 18 to 22 g, fasted 12 hours
# Protocol: Further, the acute toxicity of the compounds of the present invention having the formula (I) was determined by intravenous administration (i.v.) and oral administration (p.o.) in 5 to 6 groups of rats (dd strain; body weight, 18 to 22 g; 10 rats in each group) which had been fasted for 12 hours prior to the test.
# [13] = iv, read-out: LD50 (50% lethal dose), i.v.
# [14] = po, read-out: LD50 (50% lethal dose), p.o.
SMILES,MIC [1],MIC (Bacillus anthracis),MIC [2],MIC [3],MIC [4],MIC [5],MIC (Streptomyces viridans),MIC (Sarcina lutea ATCC 9341),MIC [6],MIC [7],MIC [8],MIC (Enterbactor cloacae 2),MIC [9],MIC [10],MIC (Esherichia coli NIHJ),MIC [11],MIC (Proteus mirabilis 1287),MIC [12],MIC (Candida albicans KYU),LD50 (Acute toxicity; [13]),other results
"CCn1cc(C(=O)O)c(=O)c2ccc(C)nc21 [Compound 13, 1-ethyl-1,4-dihydro-7-methyl-4-one-1,8-naphthyridine-3-carboxylic acid, reference compound]",6.3 µg/mL,12.5 µg/mL,50 µg/mL,50 µg/mL,50 µg/mL,> 100 µg/mL,> 100 µg/mL,> 100 µg/mL,> 100 µg/mL,3.2 µg/mL,6.3 µg/mL,12.5 µg/mL,6.3 µg/mL,12.5 µg/mL,12.5 µg/mL,6.3 µg/mL,25 µg/mL,> 100 µg/mL,> 500 µg/mL,,
"NNC(=O)c1cn2c3c(cc(F)cc3c1=O)C1CCCCC12 (stereo not shown) [Compound 10, 2-Fluoro-7a,8,9,10,11,11a-hexahydro-4-oxo-4H-pyrido[3,2,1-jk]carbazol-5-carbohydrazide]",25 µg/mL,100 µg/mL,100 µg/mL,50 µg/mL,50 µg/mL,> 100 µg/mL,> 100 µg/mL,> 100 µg/mL,> 100 µg/mL,25 µg/mL,25 µg/mL,12.5 µg/mL,12.5 µg/mL,12.5 µg/mL,25 µg/mL,25 µg/mL,50 µg/mL,> 100 µg/mL,> 500 µg/mL,100 mg/kg,LD50 (Acute toxicity; [14]): 3500 mg/kg
"O=C(OCCBr)c1cn2c3c(cc(F)cc3c1=O)C1CCCCC12 (stereo not drawn) [Compound 9, β-bromoethyl 2-fluoro-7a,8,9,10,11,11a-hexahydro-4-oxo-4H-pyrido[3,2,1-jk]carbazol-5-carboxylate]",12.5 µg/mL,50 µg/mL,100 µg/mL,50 µg/mL,50 µg/mL,> 100 µg/mL,> 100 µg/mL,100 µg/mL,100 µg/mL,12.5 µg/mL,25 µg/mL,12.5 µg/mL,25 µg/mL,25 µg/mL,25 µg/mL,25 µg/mL,50 µg/mL,> 100 µg/mL,> 500 µg/mL,105 mg/kg,LD50 (Acute toxicity; [14]): 3000 mg/kg
"O=C(O)c1cn2c3c(ccc([N+](=O)[O-])c3c1=O)C1CCCCC12 (stereo not shown) [Compound 6, 3-nitro-7a,8,9,10,11,11a-hexahydro-4-oxo-4H-pyrido[3,2,1-jk]carbazol-5-carboxylic acid]",3.2 µg/mL,12.5 µg/mL,12.5 µg/mL,12.5 µg/mL,12.5 µg/mL,> 100 µg/mL,> 100 µg/mL,50 µg/mL,50 µg/mL,6.3 µg/mL,12.5 µg/mL,6.3 µg/mL,6.3 µg/mL,6.3 µg/mL,6.3 µg/mL,12.5 µg/mL,12.5 µg/mL,> 100 µg/mL,> 500 µg/mL,110 mg/kg,LD50 (Acute toxicity; [14]): 4000 mg/kg
"Cc1cc(C)c2c(=O)c(C(=O)O)cn3c2c1C1CCCCC13 (stereo not shown) [Compound 5, 1,3-Dimethyl-7a,8,9,10,11,11a-hexahydro-4-oxo-4H-pyrido[3,2,1-jk]carbazol-5-carboxylic acid]",6.3 µg/mL,6.3 µg/mL,25 µg/mL,6.3 µg/mL,6.3 µg/mL,> 100 µg/mL,> 100 µg/mL,100 µg/mL,100 µg/mL,6.3 µg/mL,12.5 µg/mL,6.3 µg/mL,12.5 µg/mL,12.5 µg/mL,12.5 µg/mL,12.5 µg/mL,12.5 µg/mL,> 100 µg/mL,> 500 µg/mL,120 mg/kg,LD50 (Acute toxicity; [14]): 3000 mg/kg
CC1CCN(CCOC(=O)c2cn3c4c(cc(F)cc4c2=O)C2CCCCC23)CC1 (stereo not shown) [Compound 12],3.2 µg/mL,6.3 µg/mL,6.3 µg/mL,6.3 µg/mL,6.3 µg/mL,50 µg/mL,100 µg/mL,50 µg/mL,50 µg/mL,12.5 µg/mL,12.5 µg/mL,6.3 µg/mL,6.3 µg/mL,6.3 µg/mL,6.3 µg/mL,6.3 µg/mL,12.5 µg/mL,> 100 µg/mL,> 500 µg/mL,130 mg/kg,LD50 (Acute toxicity; [14]): 2000 mg/kg
"COc1cc2c3c(c1)c(=O)c(C(=O)O)cn3C1CCCCC21 (stereo not shown) [Compound 4, 2-Methoxy-7a,8,9,10,11,11a-hexahydro-4-oxo-4H-pyrido[3,2,1-jk]carbazol-5-carboxylic acid]",3.2 µg/mL,6.3 µg/mL,12.5 µg/mL,12.5 µg/mL,12.5 µg/mL,100 µg/mL,100 µg/mL,100 µg/mL,100 µg/mL,12.5 µg/mL,12.5 µg/mL,6.3 µg/mL,6.3 µg/mL,6.3 µg/mL,12.5 µg/mL,12.5 µg/mL,25 µg/mL,> 100 µg/mL,> 500 µg/mL,130 mg/kg,LD50 (Acute toxicity; [14]): 4000 mg/kg
"CC(=O)Nc1ccc2c3c1c(=O)c(C(=O)O)cn3C1CCCCC21 (stereo not shown) [Compound 8, 3-acetylamino-7a,8,9,10,11,11a-hexahydro-4-oxo-4H-pyrido[3,2,1-jk]carbazol-5-carboxylic acid]",3.2 µg/mL,6.3 µg/mL,50 µg/mL,12.5 µg/mL,12.5 µg/mL,100 µg/mL,100 µg/mL,50 µg/mL,50 µg/mL,3.2 µg/mL,6.3 µg/mL,6.3 µg/mL,6.3 µg/mL,6.3 µg/mL,12.5 µg/mL,12.5 µg/mL,25 µg/mL,> 100 µg/mL,> 500 µg/mL,110 mg/kg,LD50 (Acute toxicity; [14]): 3500 mg/kg
